# According to patent US7238469B2, “Carbon monoxide improves outcomes in tissue and organ transplants and suppresses apoptosis” (priority 2001, dated 2007):
# How the values were obtained:
# [1] = tested on: Brown Norway aortas transplanted into Lewis rats; test: Aortic transplant model (transplant-associated arteriosclerosis); format: in vivo, rat; details: allogeneic recipients exposed to CO 250 ppm for 56 days
# Description: Aortic transplantation was carried out done as described elsewhere (Plissonnier et al., Transplantation 60:414–424, 1995). […] After additional left thoracotomy, three or four pairs of the inter-costal arteries were ligated using 7-0 nylon suture (Keisei Medical Industrial Co., LTD, Tokyo, Japan), and 2 cm of the descending aorta was harvested. The graft was inserted between the renal arteries and the aortic bifurcation by standard microsurgery technique using 9-0 Nylon sutures (Ethilon™, Ethicon, Inc, Somerville, N.J.). The native abdominal aorta was left after both edges were ligated.
# CO at a concentration of 1% (10,000 parts per million; ppm) in compressed air was mixed with balanced air (21% oxygen) as described previously (Otterbein et al., Am J Physiol 276(4 Pt 1):L688–L694, 1999). For the transplant model, graft donors were placed in the CO chamber two days before transplantation. Recipients were placed in the chamber immediately following transplantation and kept there 56 days. CO concentration was maintained at 250 ppm at all times.
# Adult male (250–350 g) Brown Norway rats (RT1 were used as aortic graft donors and adult male (250–350 g) Lewis rats (RT1) as recipients (Charles River Lab. Wilmington, Mass.). Male C57BL/6, p21^−/− and p53^−/− null mice were purchased from Jackson Laboratory (Bar Harbor, Me.). The MKK3^(−/−) null mice were generated as previously described (Lu et al., EMBO. J. 18:1845–1857, 1999). Mice were allowed to acclimate for one week with rodent chow and water ad libitum.
# Brown Norway aortas were transplanted into Brown Norway rats (syngeneic), untreated Lewis rats (allogeneic), or Lewis rats exposed to carbon monoxide (250 ppm; allogeneic with carbon monoxide). Samples were harvested 56 days after transplantation and stained by a modified elastic tissue-masson trichrome, or by eosin hematoxylin. Brown Norway aortic segments transplanted into Lewis rats developed arteriosclerotic lesions that are consistent with those associated with chronic graft rejection (data not shown). […]
# βTC3 cells = test: DNA fragmentation analysis (FACScan) of βTC3 treated with TNF-α; format: cell-based, murine; details: exogenous CO 1% for 24 hours
# Description: βTC3 cultures were incubated with recombinant TNF-α (500 or 1000 U/ml) (R&D Systems) for 24 hours and islet cultures were stimulated with TNF-É (5000 U/ml) (R&D Systems) and cyclohexamide (CHX) (50 μg/ml) for 48 hours. βTC3 or islets were harvested, dispersed, fixed in 70% ethanol, and suspended in DNA staining buffer (PBS, pH 7.4, containing 0.1% Triton X-100, 0.1 mM EDTA, 50 μg/ml propidium iodide, […] Rnase A). DNA content was analyzed on a FACScan™ analyzer equipped with Cell QuestO Software (Becton Dickinson, Palo Alto, Calif.). Cells with a normal DNA content (2N) were scored as viable, whereas cells with a hypoploid DNA content (<2N, termed A^0) were scored as apoptotic. To exclude debris and apoptotic cell-free fragments, all events with an FL-2 area profile below that of chicken erythrocyte nuclei were excluded from analysis.
# Cells and islets were exposed to 1% carbon monoxide in compressed air balanced with 5% CO2, as described elsewhere (see, e.g., Otterbein et al., Nature Med. 6:422–428, 2000). […]
# Whether exogenous carbon monoxide could protect β-cells from apoptosis was investigated (FIGS. 2A–C). […] After 24 hours cells were stained by propidium iodide and analyzed for DNA fragmentation on a FACScan™. […]
# [2] = tested on: rat platelets overlaid on mouse 2F–2B endothelial cells; test: Platelet aggregation assay, platelets overlaid on pretreated endothelial cells; format: cell-based; details: endothelial cells pretreated with protoporphyrin 50 μM; ADP 2 μM
# Description: Mouse 2F–2B endothelial cells were cultured on 0.2% gelatin (Sigma) coated six-well plates in 88% DMEM (Life Technologies), 10% FCS (FCS), 100 U/ml penicillin, and 100 îg/ml streptomycin (Life Technologies). Confluent endothelial cells either were left untreated or were treated with the HO-inducing agent CoPPIX (50 îM; 18 h), the HO inhibitor SnPPIX (50 îM, 18 h), or both CoPPIX (50 îM, 15 h) and SnPPIX (50 îM, 3 h). Platelet-rich plasma was obtained by centrifugation (290-g, 12 min, 19° C.) of normal rat […] in 3.8% sodium citrate. Rat platelets (3–10^8 cells ml) were resuspended in HT buffer (8.9 mM NaHCO3, 0.8 mM KH2PO, 5.6 mM dextrose, 2.8 mM KCl solution, 0.8 mM MgCl2, 129 mM NaCl, 10 mM HEPES). Platelets were overlaid (5 min; 37° C.) on mouse endothelial cells, and platelet aggregation assays were conducted as described before (Kaczmarek et al, J. Biol. Chem. 271:33116, 1996) by using an aggregometer (Chrono-Log, Harestown, Pa.) and ADP (0.5–4 μM) as an agonist.
SMILES,accumulation of leukocytes into the adventitia [1],intimal hyperplasia in aortic grafts [1],loss of medial SMC [1],apoptotic cells (DNA fragmentation analysis) (βTC3 cells),platelet aggregation on stimulation by ADP [2]
"[C-]#[O+] [CO, carbon monoxide]",inhibited,inhibited,no significant effect on loss of medial SMC,11.7%,–
"C=Cc1c2[n-]c(c1C)/C=c1\[n-]/c(c(C)c1C=C)=C\c1[n-]c(c(CCC(=O)O)c1C)C=c1[n-]/c(c(C)c1CCC(=O)O)=C\2.[Sn+4] [SnPPIX, tin protoporphyrin IX]",–,–,–,–,platelet aggregation was enhanced
